Patent publication US20220395496A1 (Hoffmann-La Roche Inc., priority 2019, published 2022)

These compounds were tested against T1, human TLR8 (Homo sapiens, UniProt Q9NR97) (assay: HEK293-Blue-hTLR-8 cells assay (SEAP reporter, R848 stimulation)). Details: HEK293-Blue-hTLR8 cells, R848, 20 hrs; lowest tested concentration 0.0032.
T1 sequence (Q9NR97 27-1041): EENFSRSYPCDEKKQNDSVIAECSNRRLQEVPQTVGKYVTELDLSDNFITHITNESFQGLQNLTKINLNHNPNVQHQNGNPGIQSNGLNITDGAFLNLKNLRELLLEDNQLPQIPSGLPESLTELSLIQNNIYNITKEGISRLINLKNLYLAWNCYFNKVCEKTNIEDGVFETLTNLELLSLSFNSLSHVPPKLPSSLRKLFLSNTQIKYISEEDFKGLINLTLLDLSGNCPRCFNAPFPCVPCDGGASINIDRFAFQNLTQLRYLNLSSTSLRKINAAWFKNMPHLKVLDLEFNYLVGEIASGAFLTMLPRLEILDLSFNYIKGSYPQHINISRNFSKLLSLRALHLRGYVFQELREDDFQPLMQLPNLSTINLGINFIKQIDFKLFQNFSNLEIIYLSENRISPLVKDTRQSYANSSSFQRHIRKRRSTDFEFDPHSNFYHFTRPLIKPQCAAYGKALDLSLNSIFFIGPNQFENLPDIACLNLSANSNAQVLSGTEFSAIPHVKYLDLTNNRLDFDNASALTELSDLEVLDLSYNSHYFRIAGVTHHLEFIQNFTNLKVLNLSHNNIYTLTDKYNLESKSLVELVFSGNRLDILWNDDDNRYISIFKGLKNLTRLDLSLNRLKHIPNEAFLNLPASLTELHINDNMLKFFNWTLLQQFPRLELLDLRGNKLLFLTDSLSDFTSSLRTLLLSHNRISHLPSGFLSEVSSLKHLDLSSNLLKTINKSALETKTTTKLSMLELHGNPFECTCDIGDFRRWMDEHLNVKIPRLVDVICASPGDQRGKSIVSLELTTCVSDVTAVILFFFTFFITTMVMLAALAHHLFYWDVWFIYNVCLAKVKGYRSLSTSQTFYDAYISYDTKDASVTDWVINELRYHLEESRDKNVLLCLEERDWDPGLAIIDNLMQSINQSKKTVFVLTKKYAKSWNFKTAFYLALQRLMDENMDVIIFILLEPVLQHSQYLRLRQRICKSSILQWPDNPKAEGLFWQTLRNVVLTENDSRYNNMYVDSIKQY
Format: cell-based
Method: The following tests were carried out in order to determine the activity of the compounds of this invention in HEK293-Blue-hTLR-7/8/9 cells assay.
HEK293-Blue-hTLR-8 Cells Assay:
A stable HEK293-Blue-hTLR-8 cell line was purchased from InvivoGen (Cat. #: hkb-htlr8, San Diego, Calif., USA). These cells were originally designed for studying the stimulation of human TLR8 by monitoring the activation of NF-κB. A SEAP (secreted embryonic alkaline phosphatase) reporter gene was placed under the control of the IFN-β minimal promoter fused to five NF-κB and AP-1-binding sites. The SEAP was induced by activating NF-κB and AP-1 via stimulating HEK-Blue hTLR8 cells with TLR8 ligands. Therefore the reporter expression was declined by TLR8 antagonist under the stimulation of a ligand, such as R848, for incubation of 20 hrs. The cell culture supernatant SEAP reporter activity was determined using QUANTI-Blue™kit (Cat. #: rep-qb1, Invivogen, San Diego, Calif., USA) at a wavelength of 640 nm, a detection medium that turns purple or blue in the presence of alkaline phosphatase.
HEK293-Blue-hTLR8 cells were incubated at a density of […] cells/mL in a volume of 170 μL in a 96-well plate in Dulbecco's Modified Eagle's medium (DMEM) containing 4.5 g/L glucose, 50 U/mL penicillin, […], […], 2 mM L-glutamine, 10% (v/v) heat-inactivated fetal bovine serum with addition of 20 μL test compound in a serial dilution in the presence of final DMSO at 1% and 10 μL of 60 uM R848 in above DMEM, perform incubation under 37° C. in a CO2 incubator for 20 hrs. Then 20 μL of the supernatant from each well was incubated with 180 μL Quanti-blue substrate solution at 37° C. for 2 hrs and the absorbance was read at 620˜655 nm using a spectrophotometer. The signalling pathway that TLR8 activation leads to downstream NF-κB activation has been widely accepted, and therefore similar reporter assay was modified for evaluating TLR8 antagonist.

Row | Compound | IC50
1 | C[C@H]1C[C@@H](NCc2cnc(N3CCN[C@@H](C)C3)nc2)CN(c2ccc(C#N)c3ncccc23)C1 [Example 29, 5-[(3S,5R)-3-methyl-5-[[2-[(3S)-3-methylpiperazin-1-yl]pyrimidin-5-yl]methylamino]-1-piperidyl]quinoline-8-carbonitrile] | < 0.0032 µM
2 | C[C@H]1C[C@@H](NCc2ccc3c(n2)CCNC3)CN(c2ccc(C#N)c3ncccc23)C1 [Example 30, 5-[(3S,5R)-3-methyl-5-(5,6,7,8-tetrahydro-1,6-naphthyridin-2-ylmethylamino)-1-piperidyl]quinoline-8-carbonitrile] | < 0.0032 µM
3 | C[C@H]1C[C@@H](NCc2cnc(N3CCNCC3)cn2)CN(c2ccc(C#N)c3ncccc23)C1 [Example 31, 5-[(3S,5R)-3-methyl-5-[(5-piperazin-1-ylpyrazin-2-yl)methylamino]-1-piperidyl]quinoline-8-carbonitrile] | < 0.0032 µM
4 | C[C@H]1C[C@@H](NCc2ccccc2)CN(c2ccc(C#N)c3ncccc23)C1 [Example R1, reference compound] | 0.02 µM
5 | C[C@H]1C[C@@H](N2Cc3ccccc3C2)CN(c2ccc(C#N)c3ncccc23)C1 [Example R2, reference compound] | 0.11 µM
